# Data taken from article PMC11026403 (Communications Biology, 2024).
# Target: A/Denmark/528/2009 (H1N1)pdm09 NA-H274Y (Influenza A virus, UniProt C3W5S3, H275Y)
# Format: biochemical, Influenza A virus A/Denmark/528/2009 (H1N1)pdm09
SMILES,IC50 [µM],NAI susceptibility classification (WHO guidance)
CCC(CC)[C@H](NC(C)=O)[C@@H]1[C@H](O)[C@@H](C(=O)O)C[C@H]1N=C(N)N [peramivir],0.0235,"highly reduced inhibition (key: <10-fold, normal inhibition; 10–100 fold, reduced inhibition; >100-fold, highly reduced inhibition)"
"CCC(CC)O[C@@H]1C=C(C(=O)O)C[C@H](N)[C@H]1NC(C)=O [oseltamivir, oseltamivir carboxylate]",,"highly reduced inhibition (key: <10-fold, normal inhibition; 10–100 fold, reduced inhibition; >100-fold, highly reduced inhibition)"
